{"source": "patent US20260335468A1", "about": "“MOLECULAR RADIOAFTERGLOW PROBES FOR CANCER RADIODYNAMIC THERANOSTICS” (NANYANG TECHNOLOGICAL UNIVERSITY, priority 2023, published 2026)", "key": {"[1]": {"test": "X-ray-induced NIR afterglow properties (Table 3)", "settings": "X-ray 0.005 Gy", "text": "To enable radio afterglow for organic molecules, we proposed a radiodynamic approach based on organic luminophores (DPAs and IDPAs) that were able to harvest X-ray energy for an in situ cycloaddition reaction to form self-luminescent chemical defects (FIG. 4b). This is mechanistically different from inorganic nanophosphors wherein the host materials (for example, fluoride and aluminosilicate) absorb X-rays, lattice defects delay excitons, and rare-earth/transition metal ion dopants (for example, Nd^3+ and Eu^3+) emit light (Richard, C. & Viana, B., Light.: Sci. Appl. 2022, 11, 123). Because of the presence of heavy atoms (iodine), IDPAs had higher radiodynamic ^1O2 generation and stronger radio afterglow emission than the iodine-free counterpart (DPAs). The radio afterglow dynamic processes of IDPAs were inducible even at a tissue depth of 15 cm, which was impossible when using light."}, "[2]": {"test": "Afterglow through chicken breast tissue (tissue penetration depth study)", "type": "physicochemical", "description": "IDPASu (100 M, 100 l) solution in a round cap with a diameter of 1 cm was prepared and placed under the chicken breast tissue with different thicknesses (0, 1.0, 2.5, 5.0, 10.0 and 15.0 cm). To avoid the influence of afterglow intensity differences on tissue penetration, the X-ray source (Moxtek, Inc.) and xenon lamp (PLS-SEX300D, Beijing Perfectlight Technology Co., Ltd.) were optimized to ensure that all the samples at 0 cm (without coverage) received the same dose of X-rays (5 mGy, 250 μGy s^−1 for 20 s) or light (180 mW cm^−2 for 20 s) and thus the same afterglow intensity. After the cessation of irradiation, radio afterglow or photoafterglow was detected with or without the chicken breast tissues using the IVIS bioluminescence mode with an open filter and acquisition time of 120 s.\nTo induce afterglow, IDPASu was irradiated with X-ray or light through chicken breast tissues before signal detection (FIGS. 11a-b). To eliminate the influence of intensity difference on tissue penetration, X-ray and light irradiation were optimized to ensure similar intensity without tissue coverage. […] Radio afterglow of IDPASu was inducible and detectable even through ~15 cm tissue, showing ~4.2-fold higher signal than that of IDPASu without X-ray irradiation and tissue (FIG. 11d)."}, "[3]": {"test": "^1O2 generation upon X-ray irradiation (ESR, TEMP trap)", "type": "physicochemical", "settings": "X-ray irradiation, ESR", "description": "To study ^1O2 generation, a mixture of DPAS or IDPAS (100 M) and TEMP (10 mM) in PBS (0.01 M, pH 7.4, 50% DMSO) was irradiated by X-rays at 2 Gy (100 mGy s^−1 for 20 s) or 5 mGy (250 μGy s^−1 for 20 s). The ESR signals of the mixture were recorded with a Bruker A300 instrument. The ESR signal of the free radical 2,2,6,6-tetramethyl-1-piperidinyloxyl (g=2.0060) was generated by the reaction of ^1O2 with TEMP. The ^1O2 quencher NaN3 (1 mM) was added to validate the afterglow mechanism of IDPASu. Additionally, other commercially available radio sensitizers (such as acridine orange, hematoporphyrin and verteporfin) were measured and compared. The procedure of block depths was similar to that of the tissue penetration depth study and the ^1O2 generation for different depth tissues was measured. The ESR signal changes of MRAP in the absence or presence of CatB were measured in a similar way. The ESR signals of 2,2,6,6-tetramethyl-1-piperidinyloxyl from the reaction of ^1O2 with TEMP were plotted as a function of the concentration of ^1O2, which was generated by the addition of NaOCl to H2O2. This generated the standard curve between the ESR intensity and ^1O2 concentration."}, "[4]": {"test": "Cell viability of U87 cells with IDPASu (Cell Counting Kit-8)", "type": "cell-based, human", "settings": "human, u87 cells; 100 μM; read-out: cell viability without X-ray", "description": "(§1) All the cells were purchased from the American Type Culture Collection, including CatB-negative cells (mouse embryonic fibroblasts 3T3 cells, RAW 264.7, 293-T and human monocytic THP-1 cells) and CatB-positive cells (human U87 glioblastoma cells, U87-luciferase cells, A549 lung epithelial cells and 4T1 and melanoma B16-F10). All the cells were cultured\n(§2) in Dulbecco's modified Eagle medium (Gibco) or RPMI 1640 medium containing 10.0% foetal bovine serum (Gibco) and 0.1% ciprofloxacin in a humidified atmosphere containing 5.0% CO2 and 95.0% air at 37° C. To study the cell viability of IDPASu, U87 cells (1×10^4 per well) were seeded on 96-well plates and incubated for 24 h. IDPASu at different concentrations (0, 2.5, 5.0, 10.0, 25.0, 50.0 and 100.0 μM) were added to the U87 cell medium for 12 h incubation. After incubation, 96-well plates were covered with chicken breast tissues with different thicknesses (0, 5, 8 and 15 cm), followed by X-ray irradiation. The X-ray setup was optimized to ensure the cells in all the wells received similar dose of X-ray irradiation (2 Gy) before chicken breast tissue coverage (0 cm). After irradiation, the cells were further incubated for 12 h, followed by the colorimetric Cell Counting Kit-8 assay. Briefly, Cell Counting Kit-8 solution (10 l, Dojindo Molecular Technologies) was added into the cell medium (100 l) for 2 h incubation, and the absorbance of medium at 450 nm was recorded using a microplate reader (ReadMax 1900). The cells without IDPASu incubation and X-ray irradiation were set as control. The cell viability (%) was calculated by the absorbance of treated cells over that of the control cells. To test the cell viability of activatable MRAP, U87 and 3T3 cells (1×10^4 per well) were seeded on 96-well plates and incubated for 24 h. The inhibitor group was pre-treated with a CatB inhibitor (CA-074, 1 mM) for 10 h incubation. MRAP at different concentrations (0, 2.5, 5.0, 10.0, 25.0, 50.0 and 100.0 µM) were added to the U87 and 3T3 cell medium for 12 h incubation. […]"}, "U87 cells": {"tested_on": "U87 cells", "test": "Cell viability of U87 cells with IDPASu (Cell Counting Kit-8)", "type": "cell-based, human", "description": "as §1, §2"}}}
{"smiles": "COC(=C1C2CC3CC(C2)CC1C3)c1cc(O)c(I)cc1/C=C/C1=CC(=C(C#N)C#N)c2ccccc2S1", "note": "[IDPASu]", "values": [{"measurement": "afterglow half-life", "setting": "[1]", "result": 18.4, "unit": "min"}, {"measurement": "afterglow life-time", "setting": "[1]", "result": 25, "unit": "h"}, {"measurement": "λem", "setting": "[1]", "result": "~773", "unit": "nm"}, {"measurement": "radio afterglow signal through ~15 cm tissue versus IDPASu without X-ray irradiation and tissue", "setting": "[2]; 15 cm chicken breast tissue", "result": "~ 4.2 fold"}, {"measurement": "penetration depth, Detection with tissue (induction without tissue)", "setting": "[2]; X-ray 0.005 Gy", "result": 15, "unit": "cm"}, {"measurement": "penetration depth, Induction and detection through tissue", "setting": "[2]; X-ray 0.005 Gy", "result": 5, "unit": "cm"}, {"measurement": "radio afterglow intensity at tissue depth of 1 cm", "setting": "[2]; induction by X-ray through tissue, detection without tissue", "result": "~ 1.79×10^6 photons s^−1 cm^−2 sr^−1"}, {"measurement": "photoafterglow intensity at tissue depth of 1 cm", "setting": "[2]; induction by light through tissue, detection without tissue", "result": "7.20×10^4 photons s^−1 cm^−2 sr^−1"}, {"measurement": "^1O2 generation / radiodynamic activity", "setting": "[3]", "result": "the highest"}, {"measurement": "viability at 24 h, 100 µM", "setting": "[4]", "result": 91, "unit": "%"}, {"measurement": "cell viability under X-ray irradiation", "setting": "U87 cells; 100 μM, X-ray 2 Gy, 100 mGy s^−1 for 20 s, no tissue", "result": 1.4, "unit": "%"}, {"measurement": "cell viability under X-ray irradiation at tissue depth of 15 cm", "setting": "U87 cells; X-ray through 15 cm chicken breast tissue", "result": 31.9, "unit": "%"}]}
